Source: patent publication US20060189673A1, “Phenylazole compound, production process therefor and antioxidant” (Nippon Soda Co., Ltd., priority 2003, published 2006)
Where two headings read alike, the source gives them in different places.

Columns and labels:
[1] = test system: lipid peroxide in homogenates of brain, heart and kidneys; assay: Tissue migration: antioxidative action on lipids ex vivo in tissue homogenates after intraperitoneal administration; conditions: Rattus norvegicus, ip, 0.5 h, male SD rats, 100 mg/kg intraperitoneally, 30 minutes after administration
Method: (§1) The antioxidative action on lipids in vitro of the compounds according to the present invention was evaluated in accordance with the method of Malvy et al. (Malvy C. et al.,) described in Biochemical and Biophysical Research Communications, 1980, vol. 95, pp. 734 to 737,) by measuring the lipid peroxide activity in a rat brain homogenate. Namely, the rat brain was removed followed by the addition of five volumes of an aqueous solution of phosphate buffered saline (pH 7.4) (hereinafter, abbreviated as PBS) to the brain while cooling with water, homogenizing with a Teflon homogenizer, and centrifuging for 20 minutes at 10,000 g to collect the supernatant as a brain homogenate. 500 μM cysteine, 5 μM ferrous sulfate, and 100 mM KCl were added to the resulting brain homogenate followed by incubating for 30 minutes at 37° C. and measuring the malondialdehyde that formed due to decomposition of lipid peroxide using the thiobarbituric acid method. The 50% inhibitory concentrations (hereinafter, abbreviated as IC50) of the compounds according to the present invention were then determined from the measured values.
Tissue migration of the compounds according to the present invention was evaluated by measuring the antioxidative action on lipids ex vivo. A test compound dissolved or suspended in an aqueous physiological saline solution or aqueous physiological saline solution containing 1% polyethylene hardened castor oil (Nikko Chemicals: Nikkol HCO-60) was intraperitoneally administered to male SD rats (age: 6 weeks) (purchased from Japan SLC) in groups of 3 animals each at a dose of 100 mg/kg. The animals were sacrificed by exsanguination by severing the carotid artery 30 minutes after administration followed by removing the brain, heart and kidneys. The lipid peroxide activity of homogenates of each tissue was measured using the method described in Example 3. The inhibition rates of the test compounds in each tissue were determined from the amounts of lipid peroxide formed in a control group (physiological saline dose group) and test compound groups.

[2] = test system: lipid peroxides in retina homogenate; assay: Retina migration: formation of lipid peroxides in retina ex vivo after oral administration; set-up: species or system rat; conditions: male SD rats, retinas removed 30 minutes later, auto-oxidized 1 hour at 37° C.
Method: The retina migration of the compounds according to the present invention was evaluated. The test compounds dissolved or suspended in 0.1 N aqueous hydrochloric acid solution or 1% polyethylene hardened castor oil (Nikkol HCO-60) solution were orally administered to male SD rats (age: 6 weeks) in groups of three animals each followed by removing both eyes 30 minutes later and separating the retinas while cooling with ice. The retinas were homogenized with a Polytron Microhomogenizer (NS-310E: manufactured by Niti-On Medical and Physical Instruments) in 0.1 M Tris-HCl buffer (pH 7.4) while cooling with ice to prepare 5% homogenates. The homogenates were then auto-oxidized for 1 hour at 37° C., and the amounts of lipid peroxide that formed were quantified using the thiobarbituric acid method (Masugi, et al., Vitamin, 51, 21 to 29, 1977).

[3] = test system: mice administered ferrous chloride into the spinal subarachnoid cavity; assay: Antioxidative action in vivo: abnormal behavior and mortality after ferrous chloride into the spinal subarachnoid cavity; set-up: species or system mouse; conditions: male ICR mice, 30 minutes before ferrous chloride, score after 60 minutes
Method: The antioxidative action in vivo of the compounds according to the present invention was evaluated according to the method described in the Journal of Medical Chemistry (J. Med. Chem., 1997, vol. 40, pp. 559 to 573) based on the inhibitory effects on abnormal behavior and mortality rate following administration of ferrous chloride into the spinal subarachnoid cavity of mice. Male S1c:ICR mice (age: 5 weeks) (purchased from Japan SLC) were used in groups of 3 to 7 animals each, and were administered 5 μl of aqueous physiological saline solution containing 50 mM ferrous chloride into the spinal column between the 5th and 6th lumbar vertebra. […] The test compounds were dissolved or suspended in an aqueous physiological saline solution or an aqueous physiological saline solution containing 1% polyethylene hardened castor oil (manufactured by Nikko Chemicals CO., LTD. under the name of NIKKOL HCO-60), and administered intraperitoneally or orally 30 minutes before the administration of ferrous chloride. The 50% inhibitory dose (hereinafter, abbreviated as ID50) of each test compound was determined from the score of a control group (physiological saline treated group) and the score of each test compound treated group.

5-lipoxygenase (5-LO) = molecular target: T1, 5-lipoxygenase (5-LO) (Homo sapiens, UniProt P09917); assay: 5-LO inhibitory activity (leucotriene B4 formation in human peripheral blood mononuclear cells, A23187); type: cell-based; conditions: 30 μM A23187, read-out: Lipoxygenase inhibitory action 50% inhibitory concentration (IC50 μm) 5-LO
T1 construct: human peripheral blood mononuclear cells; endogenous in cells; host or cells: human peripheral blood mononuclear cells
T1 sequence (P09917 1-674): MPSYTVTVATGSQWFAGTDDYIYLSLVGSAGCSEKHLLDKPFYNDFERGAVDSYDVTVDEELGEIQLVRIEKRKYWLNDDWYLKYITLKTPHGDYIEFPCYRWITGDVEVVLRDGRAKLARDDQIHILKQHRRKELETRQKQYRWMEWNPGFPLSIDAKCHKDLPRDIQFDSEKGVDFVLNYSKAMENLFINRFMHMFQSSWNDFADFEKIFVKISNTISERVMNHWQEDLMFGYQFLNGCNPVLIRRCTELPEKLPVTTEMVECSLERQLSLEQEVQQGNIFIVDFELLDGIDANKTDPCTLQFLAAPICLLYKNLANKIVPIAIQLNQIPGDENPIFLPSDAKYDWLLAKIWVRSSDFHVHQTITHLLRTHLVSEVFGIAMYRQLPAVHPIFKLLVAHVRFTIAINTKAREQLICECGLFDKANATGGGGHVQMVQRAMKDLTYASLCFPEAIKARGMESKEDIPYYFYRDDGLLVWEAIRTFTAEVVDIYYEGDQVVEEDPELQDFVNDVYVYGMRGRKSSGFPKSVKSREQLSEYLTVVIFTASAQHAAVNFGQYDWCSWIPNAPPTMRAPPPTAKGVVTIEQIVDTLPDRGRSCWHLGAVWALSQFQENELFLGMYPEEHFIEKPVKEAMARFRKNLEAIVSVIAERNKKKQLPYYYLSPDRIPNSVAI
Method: 5-LO inhibitory activity was measured using a variation of the method of Carter et al. (Carter G. W. et al., J. Pharmacol. Exp. Ther., 256, 929 to 937, 1991). Namely, after pre-incubating (37° C., 15 minutes) in Hank's solution human peripheral blood mononuclear cells and a test compound dissolved in DMSO (final concentration: 1%), 30 μM A23187 was added and the resulting solution was additionally incubated (37° C., 30 minutes). The resulting leucotriene B4 that formed was quantified by enzyme immunoassay, and the 50% formation inhibitory concentration (μM) of the test compound with respect to 5-LO was calculated from that value.

[4] = test system: lipid peroxide in rat brain homogenate; assay: Antioxidative action on lipids in vitro (lipid peroxide activity in rat brain homogenate, thiobarbituric acid method); type: biochemical; conditions: 500 μM cysteine, 5 μM ferrous sulfate, 100 mM KCl, 30 minutes at 37° C., malondialdehyde, read-out: 50% inhibitory concentration of anti-lipid peroxide action in vitro (IC50)
Method: as §1

15-lipoxygenase (15-LO) = molecular target: T2, 15-lipoxygenase (15-LO) (Oryctolagus cuniculus, UniProt P12530); assay: 15-LO inhibitory activity (15-LO from rabbit reticulocytes, linoleic acid, 15-HETE formation); type: biochemical; conditions: 256 μM linoleic acid, 4° C., read-out: Lipoxygenase inhibitory action 50% inhibitory concentration (IC50 μm) 15-LO
T2 construct: 15-LO obtained from rabbit reticulocytes; from tissue; host or cells: rabbit reticulocytes
T2 sequence (P12530 1-663): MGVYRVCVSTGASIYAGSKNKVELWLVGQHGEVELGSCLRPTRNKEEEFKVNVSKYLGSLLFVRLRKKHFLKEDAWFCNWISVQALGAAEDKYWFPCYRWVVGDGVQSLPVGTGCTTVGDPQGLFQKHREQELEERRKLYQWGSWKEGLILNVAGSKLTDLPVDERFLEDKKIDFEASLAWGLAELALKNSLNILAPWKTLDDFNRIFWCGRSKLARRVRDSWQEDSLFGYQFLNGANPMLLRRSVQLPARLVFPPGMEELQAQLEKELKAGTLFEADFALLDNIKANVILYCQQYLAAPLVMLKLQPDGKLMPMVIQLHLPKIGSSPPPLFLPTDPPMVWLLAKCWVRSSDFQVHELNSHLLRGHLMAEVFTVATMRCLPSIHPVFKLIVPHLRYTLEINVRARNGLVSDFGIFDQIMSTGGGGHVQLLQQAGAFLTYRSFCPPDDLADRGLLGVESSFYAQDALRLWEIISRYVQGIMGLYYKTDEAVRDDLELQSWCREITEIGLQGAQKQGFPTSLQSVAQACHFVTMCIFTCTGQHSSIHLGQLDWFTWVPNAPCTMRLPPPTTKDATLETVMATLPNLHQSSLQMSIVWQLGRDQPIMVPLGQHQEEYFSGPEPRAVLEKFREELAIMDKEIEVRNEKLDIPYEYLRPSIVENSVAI
Method: 15-LO inhibitory activity was measured using a variation of the method of Auerbach et al. (Auerbach B. J. et al., Anal. Biochem., 201, 375 to 380, 1992). Namely, after pre-incubating (4° C., 15 minutes) in phosphate buffer (pH 7.4) 15-LO obtained from rabbit reticulocytes and a test compound dissolved in DMSO (final concentration: 1%), 256 μM linoleic acid was added and the resulting solution was additionally incubated (4° C., 10 minutes). The resulting 15-HETE that formed was quantified by spectrophotometry (OD660 nm), and the 50% formation inhibitory concentration (μM) of the test compound with respect to 15-LO was calculated from that value.

[5] = brain, read-out: Inhibition rate of ex vivo anti-lipid peroxide action (%) Brain
[6] = heart, read-out: Inhibition rate of ex vivo anti-lipid peroxide action (%) Heart
[7] = kidney, read-out: Inhibition rate of ex vivo anti-lipid peroxide action (%) Kidney

Row | SMILES | inhibition at 100 mg/kg [1, 5] [%] | inhibition at 100 mg/kg [1, 6] [%] | inhibition at 100 mg/kg [1, 7] [%] | Inhibitory effect on formation of lipid peroxides in retina ex vivo 30% inhibitory concentration (ID30 mg/kg, oral administration) [2] [mg/kg] | Antioxidative action in vivo 50% inhibitory dose (ID50 mg/kg) Intraperitoneal administration [3] [mg/kg] | Antioxidative action in vivo 50% inhibitory dose (ID50 mg/kg) Oral administration [3] [mg/kg] | IC50 (5-lipoxygenase (5-LO)) [µM] | IC50 [4] [µM] | IC50 (15-lipoxygenase (15-LO)) [µM]
1 | Cc1c(C)c2c(c(C)c1N)CC(C)(C(=O)Nc1ccc(-n3ccnc3)cc1)O2 (racemic) [Compound 1, (±)-(5-amino-2,4,6,7-tetramethyldihydrobenzofuran-2-yl)-N-[4-(imidazol-1-yl)phenyl]carboxamide] | 83 | 80 | 87 | 16 | 6.8 | 9.7 |  |  | 
2 | Cc1c(C)c2c(c(C)c1N)CC(C)(C(=O)Nc1ccc(-c3ccn[nH]3)cc1)O2 (stereo not drawn) [Compound 37] | 95 | 87 | 89 | 5.2 | 12 | 27 | 0.23 | 0.8 | 2.06
3 | Cc1c(C)c2c(c(C)c1O)CC(C)(OC=Nc1ccc(-n3ccnc3)cc1)O2 (stereo not drawn) [Control drug 1, reference compound] | 68 | 59 | 75 |  | >30 | >30 |  | 0.23 | 
4 | Cc1c(C)c2c(c(C)c1O)CCC(C)(OC=Nc1ccc(-n3ccnc3)cc1)O2 (stereo not drawn) [Control drug 2, reference compound] | 45 | 57 | 84 |  | 20 | 53 |  | 0.23 | 
